From US20240269292A1
Entries after “also recorded” stand apart in the source; their conditions may differ. Non-standard residues stand in square brackets, D forms with d. Residues, ends and D or L forms follow the SMILES beside them. *: point of attachment. Dmt = Cc1cc(O)cc(C)c1C[C@H](N)C(=O)O; X1 = CCCCCCCCCCCCCCCCCCO*

Experiments:
[1] = tested on: retinal pigment epithelium (RPE) cells; assay: Actin cytoskeleton disorganization (phalloidin) in HQ-exposed RPE cells; assay type: cell-based; details: 5 μM
Protocol: (§1) Cells are then treated with drug (or control phosphate-buffered saline (PBS) solution) and assayed for effects on mitochondrial dysfunction and other cellular changes.
(§2) Mitochondrial dysfunction can be modeled using in vitro cell culture systems relevant to retinal disease. In one such system, retinal pigment epithelium (RPE) cells are cultured to post-confluence to establish a differentiated cell monolayer and are then assayed for mitochondrial dysfunction and effect of drugs for treatment of mitochondrial dysfunction (FIG. 5). In this model, mitochondrial dysfunction is induced by two exposures to nonlethal doses of hydroquinone (HQ) at day −3 and day 0. Hydroquinone (HQ), a well-known environmental toxicant ubiquitously present in Western lifestyle, is a biochemical inducer of mitochondrial dysfunction. […] Cells are then treated with a drug of interest (mitochondrial targeted peptide drug or a prodrug thereof) or control (phosphate-buffered saline (PBS) solution and assayed for effects on mitochondrial dysfunction, as measured by microscopy of flavoprotein autofluorescence (a measure of mitochondrial electron transport chain complex II decompensation) (FIG. 6).

Albumin = Albumin (Homo sapiens, UniProt P02768); assay: Complexation of EY005-stearyl with complexation agent in methyl laurate, HPLC of pulled-down particulates and medium; assay type: binding; details: 1 hour
Sequence of Albumin (P02768 25-609, species assumed): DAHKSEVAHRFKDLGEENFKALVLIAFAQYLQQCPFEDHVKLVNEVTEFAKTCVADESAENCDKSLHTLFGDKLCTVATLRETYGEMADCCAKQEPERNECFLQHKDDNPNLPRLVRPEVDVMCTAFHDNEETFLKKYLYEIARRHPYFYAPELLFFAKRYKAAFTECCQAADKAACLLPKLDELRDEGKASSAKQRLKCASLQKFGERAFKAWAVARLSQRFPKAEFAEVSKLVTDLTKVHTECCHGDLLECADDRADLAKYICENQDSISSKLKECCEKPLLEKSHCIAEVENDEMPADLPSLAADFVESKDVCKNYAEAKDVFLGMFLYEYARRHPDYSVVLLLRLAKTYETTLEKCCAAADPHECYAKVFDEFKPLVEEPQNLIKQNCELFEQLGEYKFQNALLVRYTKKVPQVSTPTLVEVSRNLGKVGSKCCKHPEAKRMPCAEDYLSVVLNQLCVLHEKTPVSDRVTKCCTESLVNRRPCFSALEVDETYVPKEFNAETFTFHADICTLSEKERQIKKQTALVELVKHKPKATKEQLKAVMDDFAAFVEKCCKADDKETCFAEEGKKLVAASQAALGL
Protocol: As described herein, formation of drug-complex particulates in which the complexation agent has high avidity for the drug can be quantified and verified experimentally. For example, the MTT-prodrug EY005-stearyl was admixed with known quantities of selected individual complexation agents. The EY005-stearyl-complexation agent mixture was then added to an appropriate dispersal medium (in this case, methyl laurate), and centrifuged to “pull down” or separate EY005-stearyl bound to complexation agent from unbound prodrug present in the dispersal medium. HPLC analysis of pulled down particulates and dispersal medium from EY005-stearyl content determined the fraction of MTT-prodrug that is bound to the complexation agent and calculation of the Kd value, the unbound to bound coefficient, for the MTT-prodrug/complexation agent pair. […]
As described herein, formation of drug-complex particulates in which the complexation agent has high avidity for the drug can be quantified and verified experimentally. For example, the MTT-prodrug EY005-stearyl was admixed with known quantities of selected individual complexation agents. […]
Table 2 illustrates an example of a EY005-stearyl prodrug solubilized in methyl laurate in which various complexation agents were added, mixed, and incubated for 1 hour. The quantity of EY005-stearyl prodrug complexed with each complexation agent was determined by HPLC. […]

[2] = Hydrophobicity and aqueous solubility; assay type: physicochemical
[3] = tested on: retinal pigment epithelium (RPE) cells; assay: HQ-induced mitochondrial dysfunction in RPE cells (flavoprotein autofluorescence); assay type: cell-based; details: HQ-exposed RPE cells, versus elamipretide or native EY005
Protocol: as §1, §2

carboxyesterase = assay: In vitro cleavage of the prodrug ester bond by carboxyesterase (HPLC); assay type: in vitro ADME; details: 37° C. in vitro, carboxyesterase 0.1 μg/mL
Protocol: One example of an EY005-prodrug includes EY005-stearyl (FIG. 16A), wherein EY005 is linked via ester bond to stearyl alcohol, one member from the group of long-chain saturated fatty alcohols. On cleavage of the ester bond, the prodrug EY005-stearyl releases the EY005 MTT. […] Upon addition of EY005-stearyl prodrug to phosphate-buffered saline solution at 37° C. without esterase, the ester bond of the EY005-stearyl prodrug cleaves more slowly (˜36 hours) by hydrolysis (FIGS. 17A and 17C).
EY005-stearyl was incubated at 37° C. in vitro with carboxyesterase (0.1 μg/mL), to simulate the ocular physiologic environment and the type of esterase that is readily abundant within the vitreous. […] Upon addition of EY005-stearyl prodrug to phosphate-buffered saline solution at 37° C. without esterase, the ester bond of the EY005-stearyl prodrug cleaves more slowly by hydrolysis (FIG. 17C).
FIG. 18 illustrates theoretical data from an in vitro esterase assay showing rapid ester cleavage of two different EY005 prodrugs upon exposure to the esterase.
One specific example of EY005-prodrug includes EY005-stearyl (depicted in FIG. 16A), wherein EY005 is linked via ester bond to stearyl alcohol, one member from the group of long-chain saturated fatty alcohols. On cleavage of the ester bond, the prodrug EY005-stearyl releases the EY005 MTT. […]

[4] = Release assay of two formulations of EY005 prodrugs in the extended release system; assay type: physicochemical
Source text: FIG. 36 illustrates data from a release assay of two representative formulations of EY005 prodrugs in the extended-release drug delivery system, with different durations of release.
For example, FIG. 36 illustrates release kinetics for examples of two distinct formulations of EY005 prodrugs in the complexation-based XRDDS, each with different conjugation moieties, as described herein: EY005-octadecyl (formulation 1) and EY005-8-mer peptide (formulation 2).

[5] = Accelerated in vitro release assay, methyl laurate dispersal medium; assay type: physicochemical
Source text: In all cases, all EY005 was rapidly released, in some cases within hours, and in all cases by day 3.

[6] = Complexation of EY005-stearyl with complexation agent in methyl laurate, HPLC of pulled-down particulates and medium; assay type: physicochemical; details: 1 hour
Protocol: As described herein, formation of drug-complex particulates in which the complexation agent has high avidity for the drug can be quantified and verified experimentally. For example, the MTT-prodrug EY005-stearyl was admixed with known quantities of selected individual complexation agents. The EY005-stearyl-complexation agent mixture was then added to an appropriate dispersal medium (in this case, methyl laurate), and centrifuged to “pull down” or separate EY005-stearyl bound to complexation agent from unbound prodrug present in the dispersal medium. HPLC analysis of pulled down particulates and dispersal medium from EY005-stearyl content determined the fraction of MTT-prodrug that is bound to the complexation agent and calculation of the Kd value, the unbound to bound coefficient, for the MTT-prodrug/complexation agent pair. Using this type of assay, Kd values can be generated to identify the unbound to bound drug ratio for specific MTT-prodrug/complexation agent pairs in a selected dispersal medium (see, e.g., Table 2, below).
As described herein, formation of drug-complex particulates in which the complexation agent has high avidity for the drug can be quantified and verified experimentally. For example, the MTT-prodrug EY005-stearyl was admixed with known quantities of selected individual complexation agents. […] HPLC analysis of pulled down particulates and dispersal medium from EY005-stearyl content determined the fraction of MTT-prodrug that is bound to the complexation agent (binding capacity) and calculation of the Kd value, the unbound to bound coefficient, for the MTT-prodrug/complexation agent pair. […]
Table 2 illustrates an example of a EY005-stearyl prodrug solubilized in methyl laurate in which various complexation agents were added, mixed, and incubated for 1 hour. The quantity of EY005-stearyl prodrug complexed with each complexation agent was determined by HPLC. Kd values were calculated as [unbound]/[bound] fraction prodrug under each condition. Binding capacity was calculated as the μg EY005-stearyl complexed per mg complexation agent.

patients with dry AMD [7] = assay: ReCLAIM clinical trial in patients with dry AMD; assay type: in vivo, human; details: subcutaneous daily (40 mg)
Protocol: FIG. 3 illustrates summary results of the ReCLAIM study, a phase 1/2 clinical trial of systemically administered (40 mg subcutaneous daily) elamipretide in two cohorts of patients with dry AMD: 1) noncentral geographic atrophy (GA) and 2) high-risk drusen.

[8] = Ocular tissue levels of elamipretide in rabbits after subcutaneous or intravitreal administration; assay type: in vivo, rabbit
Protocol: For example, maximal systemic dosing of elamipretide is 40 mg daily delivered by subcutaneous route of administration, or approximately […]. […] Meanwhile, peak retina levels following intravitreal injection of 15 μg elamipretide is ˜15 μM. Thus, retinal bioavailability of mitochondrial-targeted peptides following systemic administration of a maximally tolerated dose is suboptimal as compared to intravitreal administration. […] The drug clears from the eye in just a few days, and once a week intravitreal injection in humans is not practical or feasible for treatment of disease in clinical practice. Thus, an extended release drug delivery system is essential to achieve sustained, high levels of drug within the vitreous, retina, and RPE.
Systemic delivery of mitochondrial targeted tetrapeptides by SQ injection have suboptimal efficacy in human patients due to insufficient retinal bioavailability. Sufficient levels of the mitochondrial-targeted tetrapeptides cannot be achieved at the target tissue site (i.e., retina). For example, in humans, maximal dosing is 40 mg SQ (˜0.3-0.9 mg/kg), a dose that is limited by SQ injection site toxicity (FIG. 3). In mice, effective dosing required 3 mg/kg, which is 3-10 fold greater than the mass-adjusted dose in humans. Peak plasma levels are also limited by the drug's rapid blood clearance, and the blood-eye barrier may also impede retinal penetration. […] Thus, higher retinal and choroidal drug levels with continuous drug exposure are desirable.

patients with dry AMD [9] = details: subcutaneous, once daily; limited by local injection site reactions; cited from earlier work
[10] = human, SQ; cited from earlier work
[11] = tested on: retinal pigment epithelium (RPE) cells; details: preclinical in vitro models of dry AMD; cited from earlier work
[12] = tested on: sub-RPE deposits and visual function; assay: APOE4 + high fat diet (HFD) mouse model of dry AMD; assay type: in vivo; details: 3 mg/kg subcutaneous
Protocol: For example, FIG. 2A illustrates the reversal of pre-existing RPE mitochondrial dysfunction and sub-RPE deposits in an ApoE4 mouse model by high-dose elamipretide administered systemically by subcutaneous (SQ) administration (3 mg/kg […]). Aged ApoE4 mice fed a high-fat diet (HFD) develop sub-RPE deposits that reflect the pathobiology of subRPE drusen in patients with dry AMD. ApoE4 mice were treated with elamipretide (n=5; 3 mg/kg SQ daily) or vehicle (n=5) for 4 weeks, continuing HFD from prior 3 mos. […] These untreated mice had thick, severe deposits.

CCCCCCCCCCCCCCCCCCOC(=O)[C@H](Cc1ccccc1)NC(=O)[C@H](CCCCN)NC(=O)[C@H](Cc1c(C)cc(O)cc1C)NC(=O)[C@H](N)CCCNC(=N)N [EY005-stearyl, H-d-Arg-DMT-Lys-Phe(-O)-octadecyl] (H-[dR][Dmt]KF-X1)
Reversal of actin cytoskeleton disorganization [1]: normalized actin cytoskeleton dysfunction | μg EY005-stearyl complexed per mg complexation agent (Albumin): 4.5 μg per mg | Hydrophobicity [2]: hydrophobic | Potency for reversal of mitochondrial dysfunction relative to comparator [3]: efficacy equivalent to treatment with EY005 native peptide | cleavage of the prodrug ester bond, releasing EY005 (carboxyesterase): rapid cleavage of the prodrug ester bond | Release kinetics profile ([4]; FIG. 36): longer initial early burst | Durability of release ([4]; two-phase kinetics): 120 days | Release rate of EY005 ([5]; magnesium stearate and albumin together): intermediate between that of formulations using either complexation agent alone | Release of EY005 into media ([5]; no complexation agent): rapid release | Release of EY005 into media ([5]; silica microbeads): rapid release | μg EY005-stearyl complexed per mg complexation agent ([6]; Cyclodextrin gamma): 2.3 μg per mg | μg EY005-stearyl complexed per mg complexation agent ([6]; Lecithin): 9.5 μg per mg | μg EY005-stearyl complexed per mg complexation agent ([6]; Silica microbeads): 0.2 μg per mg

Cc1cc(O)cc(C)c1C[C@H](NC(=O)[C@H](N)CCCNC(=N)N)C(=O)N[C@@H](CCCCN)C(=O)N[C@@H](Cc1ccccc1)C(N)=O [elamipretide, H-d-Arg-Dmt-Lys-Phe-NH2] (H-[dR][Dmt]KF-NH2)
Low-luminance visual acuity / visual function (patients with dry AMD [7]): general mean trend toward improvement in multiple metrics of visual function | peak retina levels following intravitreal injection ([8]; intravitreal injection of 15 μg): ~15 µM | choroid levels after 4 hours ([8]; rabbit, subcutaneous 1 mg/kg): undetectable | drug in the retina after subcutaneous administration ([8]; rabbit, subcutaneous 1 mg/kg): no drug is detected in the retina | peak choroid levels at 1 hour ([8]; rabbit, subcutaneous 1 mg/kg): ~50 nM | maximally tolerated dose in humans (patients with dry AMD [9]): 40 mg | Dose-limiting toxicity [10]: local injection site reactions | Aqueous solubility ([2]; native form): high aqueous solubility | Reversal of mitochondrial dysfunction in RPE cell culture [11]: potent for reversal of mitochondrial dysfunction | visual function (ERG B-wave amplitudes) [12]: increased B-wave amplitudes; also recorded: partially improved visual function
